Three compounds from US11530223B2, “Spiro-lactam NMDA receptor modulators and uses thereof” (Aptinyx Inc., priority 2016, dated 2022) can be followed below.

Like-named read-outs stand apart in the source and are kept apart here.

One series concerns rats. As to the kind of experiment: positive emotional learning (PEL) test, 50-kHz ultrasonic vocalizations. The note with it: rat, PO, one hour after administration. The series is classed as in vivo. The method, then:
Experiments were conducted as described in Burgdorf et al., “The effect of selective breeding for differential rates of 50-kHz ultrasonic vocalizations on emotional behavior in rats,” Devel. Psychobiol., 51:34-46 (2009). Rat 50-kHz ultrasonic vocalization (hedonic USVs) is a validated model for the study of positive affective state and is best elicited by rough-and-tumble play.
The PEL assay measures the acquisition of positive (hedonic) 50-kHz ultrasonic vocalizations (USVs) to a social stimulus, heterospecific rough and tumble play stimulation. Heterospecific rough-and-tumble play stimulation was administered by the experimenter's right hand. One hour after administration of test compound or vehicle negative control (0.5% sodium carboxymethyl cellulose in 0.9% sterile saline vehicle), animals received 3 min of heterospecific rough-and-tumble play that consisted of alternating 15 sec blocks of heterospecific play and 15 sec of no-stimulation. High frequency ultrasonic vocalizations (USVs) were recorded and analyzed by sonogram with Avasoft SASlab Pro (Germany) as previously described by Burgdorf et al., “Positive emotional learning is regulated in the medial prefrontal cortex by GluN2B-containing NMDA receptors,” Neuroscience, 192:515-523 (2011). Frequency modulated 50-kHz USVs that occurred during each of the no-stimulation periods were quantified to measure PEL. Animals were not habituated to play stimulation before testing. Positive emotional learning was measured during the conditioned stimulus (CS) trials preceding the tickle unconditioned stimulus (UCS) trials. Animals received 15 second trials consisting of 6 CS and 6 UCS trials each (3 min total).
The table below summarizes the findings. As each experiment includes its own vehicle group, an example (typical) vehicle score is shown. Max effect (mean number of 50 kHz USVs per 15 seconds) is reported as ^: <6.0; *: 6.0-7.6; **: 7.7-10; ***:10.1-20

Another series has as its target T1, NMDAR2A (Homo sapiens, UniProt Q12879).
T1 construct: expressed in transfected cells; host or cells: HEK cells (membrane extract)
Put plainly: [3H]MK-801 binding in NMDAR2A expressing HEK cell membranes. In kind it is biochemical. The conditions noted are these: 50 μM glutamate; for EC50: read-out: B: log EC50 (converted). In outline:
(§1)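 HEK membranes (300 μg protein) expressing one NMDAR2 subtype preincubated 15 min at 25 °C with 50 μM glutamate and compound (1×10^−15–1×10^−7 M), then 15 min with [3H]MK-801 (nonequilibrium), filtered. Baseline-subtracted binding expressed as % of 1 mM glycine; EC50 and % maximal from three-parameter fit.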

The next series concerns the target T2, NMDAR2B (Homo sapiens, UniProt Q13224).
T2 construct: expressed in transfected cells; host or cells: HEK cells (membrane extract)
As to the kind of experiment: [3H]MK-801 binding in NMDAR2B expressing HEK cell membranes. The series is classed as biochemical. The note with it: 50 μM glutamate; for EC50: read-out: B: log EC50 (converted). In outline: as §1

A further series has as its target T3, NMDAR2C (Homo sapiens, UniProt Q14957).
T3 construct: expressed in transfected cells; host or cells: HEK cells (membrane extract)
As to the kind of experiment: [3H]MK-801 binding in NMDAR2C expressing HEK cell membranes. The note with it: second part of table (r25-r35); c2, taken as NMDAR2C; read-out: B: log EC50 (converted). In kind it is biochemical. The protocol:
Assays were conducted as described by Moskal et al., “GLYX-13: a monoclonal antibody-derived peptide that acts as an N-methyl-D-aspartate receptor modulator,” Neuropharmacology, 49, 1077-87, 2005. These studies were designed to determine if the test compounds act to facilitate NMDAR activation in NMDAR2A, NMDAR2B, NMDAR2C or NMDAR2D expressing HEK cell membranes as measured by increases in [^3H]MK-801 binding.
In the assay, 300 μg of NMDAR expressing HEK cell membrane extract protein was preincubated for 15 minutes at 25° C. in the presence of saturating concentrations of glutamate (50 μM) and varying concentrations of test compound (1×10^−15M−1×10^−7M), or 1 mM glycine. Following the addition of 0.3 μCi of [^3H]MK-801 (22.5 Ci/mmol), reactions were again incubated for 15 minutes at 25° C. (nonequilibrium conditions). Bound and free [^3H]MK-801 were separated via rapid filtration using a Brandel apparatus.
In analyzing the data, the DPM (disintegrations per minute) of [^3H]MK-801 remaining on the filter were measured for each concentration of test compound or for 1 mM glycine. The DPM values for each concentration of a ligand (N=2) were averaged. The baseline value was determined from the best fit curve of the DPM values modeled using the GraphPad program and the log(agonist) vs. response (three parameters) algorithm was then subtracted from all points in the dataset. The % maximal [^3H]MK-801 binding was then calculated relative to that of 1 mM glycine: all baseline subtracted DPM values were divided by the average value for 1 mM glycine. The EC50 and % maximal activity were then obtained from the best fit curve of the % maximal [^3H]MK-801 binding data modelled using the GraphPad program and the log(agonist) vs. response (three parameters) algorithm. […]

The target in series [1] is T4, NMDAR2D (Homo sapiens, UniProt O15399+Q05586).
T4 construct: expressed in transfected cells; host or cells: HEK cells (membrane extract)
As to the kind of experiment: [3H]MK-801 binding in NMDAR2D expressing HEK cell membranes. The series is classed as biochemical. Also on record: key to B: log EC50: 0=−; ≥1×10^−9 M (e.g., −8)=+; <1×10^−9 M (e.g., −10)=++. The note with it: for EC50: second part of table (r25-r35), c4, taken as NMDAR2D, read-out: B: log EC50 (converted); for Emax: second part of table, c3, taken as NMDAR2D, read-out: A: % maximal [3H]MK-801 binding relative to 1 mM glycine. Summed up:
as §1

Another series is described as follows: IV pharmacokinetics. The note with it: Sprague Dawley rats; for C0: normal saline (first four compounds: 5% NMP, 5% Solutol HS, 90% normal saline); for Vd: read-out: Vss. The series is classed as in vivo. The protocol: Sprague Dawley rats were dosed intravenously using a normal saline formulation containing 2 mg/kg of the compounds identified in the below table (except for the first four compounds that were delivered in 5% NMP, 5% Solutol® HS and 90% normal saline formulation). The table below summarizes the results of the IV pharmacokinetics.

Series [2] in a line: oral pharmacokinetics (plasma, brain, CSF). The conditions noted are these: Sprague Dawley rats, per os 10 mg/kg; for Tmax: normal saline (first four compounds: 5% NMP, 5% Solutol HS, 90% normal saline). In kind it is in vivo.
Experimental: Plasma, brain, and CSF samples were analyzed at various time points over a 24 hour period.
The target of series [3] is T5, NMDAR2D (Homo sapiens, UniProt O15399).
T5 construct: expressed in transfected cells; host or cells: HEK cells (membrane extract)
Put plainly: [3H]MK-801 binding in NMDAR2D expressing HEK cell membranes. The series is classed as biochemical. Set-up: key to B: log EC50: 0=−; ≥1×10^−9 M (e.g., −8)=+; <1×10^−9 M (e.g., −10)=++. Summed up:
as §1

Another series has as its system Sprague Dawley rats. Put plainly: Porsolt forced swim test. In kind it is in vivo. The note with it: 0.1 mg/kg; for % reduction in float time: relative to vehicle group.
Where [4] appears, read: Sprague Dawley, rat, in vivo, iv, 2 mg/kg.
[5] abbreviates: Sprague Dawley, rat, in vivo, iv, 2 mg/kg, read-out: C0.
Where [6] appears, read: Sprague Dawley, rat, plasma, po, 10 mg/kg.
Setting [7] is: Sprague Dawley, rat, plasma, po, 10 mg/kg, plasma, read-out: Cmax.
The mark [8] stands for this setting: rat, plasma, po, read-out: Tmax.

T3 sequence (Q14957 20-1233, species assumed, other chains not shown): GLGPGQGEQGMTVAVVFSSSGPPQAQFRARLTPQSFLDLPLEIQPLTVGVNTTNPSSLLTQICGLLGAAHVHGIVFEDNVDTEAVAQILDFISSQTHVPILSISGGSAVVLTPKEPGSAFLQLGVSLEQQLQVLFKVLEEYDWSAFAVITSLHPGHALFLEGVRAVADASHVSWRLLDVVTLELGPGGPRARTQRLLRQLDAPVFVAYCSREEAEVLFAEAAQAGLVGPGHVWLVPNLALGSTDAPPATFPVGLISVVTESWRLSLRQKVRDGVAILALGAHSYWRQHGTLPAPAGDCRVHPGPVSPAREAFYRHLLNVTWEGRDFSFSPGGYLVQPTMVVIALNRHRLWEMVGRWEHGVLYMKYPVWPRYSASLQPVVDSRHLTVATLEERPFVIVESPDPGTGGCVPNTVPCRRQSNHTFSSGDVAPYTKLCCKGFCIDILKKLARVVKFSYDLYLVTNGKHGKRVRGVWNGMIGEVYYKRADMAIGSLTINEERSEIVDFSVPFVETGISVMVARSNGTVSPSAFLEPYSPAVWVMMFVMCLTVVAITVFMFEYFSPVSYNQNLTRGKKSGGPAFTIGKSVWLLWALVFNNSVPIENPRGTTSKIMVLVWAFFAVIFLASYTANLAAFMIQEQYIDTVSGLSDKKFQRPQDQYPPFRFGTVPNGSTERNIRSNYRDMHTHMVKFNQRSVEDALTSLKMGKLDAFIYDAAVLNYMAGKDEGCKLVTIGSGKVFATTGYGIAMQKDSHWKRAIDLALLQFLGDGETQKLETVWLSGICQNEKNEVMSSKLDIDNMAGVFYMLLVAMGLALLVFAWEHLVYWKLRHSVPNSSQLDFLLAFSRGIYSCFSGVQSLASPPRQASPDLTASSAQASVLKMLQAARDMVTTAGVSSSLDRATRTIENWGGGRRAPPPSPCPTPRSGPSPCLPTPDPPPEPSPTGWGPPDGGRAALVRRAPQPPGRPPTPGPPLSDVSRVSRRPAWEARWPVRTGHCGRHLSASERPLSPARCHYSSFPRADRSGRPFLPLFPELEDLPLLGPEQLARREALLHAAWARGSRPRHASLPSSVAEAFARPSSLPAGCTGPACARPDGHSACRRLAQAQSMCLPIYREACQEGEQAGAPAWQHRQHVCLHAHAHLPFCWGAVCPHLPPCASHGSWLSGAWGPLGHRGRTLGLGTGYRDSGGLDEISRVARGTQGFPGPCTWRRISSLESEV
T2 sequence (Q13224 27-1484, species assumed, other chains not shown): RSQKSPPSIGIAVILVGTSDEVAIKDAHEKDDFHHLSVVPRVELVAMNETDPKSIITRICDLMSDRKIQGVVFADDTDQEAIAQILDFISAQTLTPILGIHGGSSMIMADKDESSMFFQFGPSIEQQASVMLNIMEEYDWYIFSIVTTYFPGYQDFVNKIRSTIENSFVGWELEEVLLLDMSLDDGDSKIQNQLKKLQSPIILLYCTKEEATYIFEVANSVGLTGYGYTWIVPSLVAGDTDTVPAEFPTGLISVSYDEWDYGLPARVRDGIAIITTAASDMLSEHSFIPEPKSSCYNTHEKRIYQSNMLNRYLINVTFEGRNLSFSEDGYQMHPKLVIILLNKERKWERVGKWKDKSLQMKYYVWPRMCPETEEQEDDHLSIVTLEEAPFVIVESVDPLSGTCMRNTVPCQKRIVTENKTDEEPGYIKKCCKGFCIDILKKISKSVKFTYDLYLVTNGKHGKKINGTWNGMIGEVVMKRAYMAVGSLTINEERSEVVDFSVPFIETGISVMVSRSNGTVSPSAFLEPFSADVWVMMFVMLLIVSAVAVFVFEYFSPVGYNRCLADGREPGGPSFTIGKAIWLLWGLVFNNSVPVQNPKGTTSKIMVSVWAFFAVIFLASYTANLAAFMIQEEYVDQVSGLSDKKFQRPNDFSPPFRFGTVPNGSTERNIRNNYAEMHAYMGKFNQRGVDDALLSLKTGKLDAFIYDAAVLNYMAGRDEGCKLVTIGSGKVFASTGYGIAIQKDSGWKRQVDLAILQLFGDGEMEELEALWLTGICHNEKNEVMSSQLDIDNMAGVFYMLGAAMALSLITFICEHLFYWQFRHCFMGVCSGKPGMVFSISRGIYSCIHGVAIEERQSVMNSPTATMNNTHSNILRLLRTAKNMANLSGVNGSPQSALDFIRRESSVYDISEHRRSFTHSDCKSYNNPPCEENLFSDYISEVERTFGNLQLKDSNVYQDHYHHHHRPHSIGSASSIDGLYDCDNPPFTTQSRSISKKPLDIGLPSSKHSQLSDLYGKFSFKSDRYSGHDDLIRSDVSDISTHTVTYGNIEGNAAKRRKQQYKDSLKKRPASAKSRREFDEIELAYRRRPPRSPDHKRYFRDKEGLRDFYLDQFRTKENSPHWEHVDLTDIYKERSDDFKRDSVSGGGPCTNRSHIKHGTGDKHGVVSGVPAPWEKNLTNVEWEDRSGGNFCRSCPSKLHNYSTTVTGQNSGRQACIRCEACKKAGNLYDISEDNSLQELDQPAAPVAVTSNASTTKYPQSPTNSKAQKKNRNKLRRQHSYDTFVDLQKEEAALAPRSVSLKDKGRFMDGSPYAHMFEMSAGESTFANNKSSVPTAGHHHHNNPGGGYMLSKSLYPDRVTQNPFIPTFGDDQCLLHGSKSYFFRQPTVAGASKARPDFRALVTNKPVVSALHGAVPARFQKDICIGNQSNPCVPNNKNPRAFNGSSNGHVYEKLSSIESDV
T1 sequence (Q12879 23-1464, species assumed, other chains not shown): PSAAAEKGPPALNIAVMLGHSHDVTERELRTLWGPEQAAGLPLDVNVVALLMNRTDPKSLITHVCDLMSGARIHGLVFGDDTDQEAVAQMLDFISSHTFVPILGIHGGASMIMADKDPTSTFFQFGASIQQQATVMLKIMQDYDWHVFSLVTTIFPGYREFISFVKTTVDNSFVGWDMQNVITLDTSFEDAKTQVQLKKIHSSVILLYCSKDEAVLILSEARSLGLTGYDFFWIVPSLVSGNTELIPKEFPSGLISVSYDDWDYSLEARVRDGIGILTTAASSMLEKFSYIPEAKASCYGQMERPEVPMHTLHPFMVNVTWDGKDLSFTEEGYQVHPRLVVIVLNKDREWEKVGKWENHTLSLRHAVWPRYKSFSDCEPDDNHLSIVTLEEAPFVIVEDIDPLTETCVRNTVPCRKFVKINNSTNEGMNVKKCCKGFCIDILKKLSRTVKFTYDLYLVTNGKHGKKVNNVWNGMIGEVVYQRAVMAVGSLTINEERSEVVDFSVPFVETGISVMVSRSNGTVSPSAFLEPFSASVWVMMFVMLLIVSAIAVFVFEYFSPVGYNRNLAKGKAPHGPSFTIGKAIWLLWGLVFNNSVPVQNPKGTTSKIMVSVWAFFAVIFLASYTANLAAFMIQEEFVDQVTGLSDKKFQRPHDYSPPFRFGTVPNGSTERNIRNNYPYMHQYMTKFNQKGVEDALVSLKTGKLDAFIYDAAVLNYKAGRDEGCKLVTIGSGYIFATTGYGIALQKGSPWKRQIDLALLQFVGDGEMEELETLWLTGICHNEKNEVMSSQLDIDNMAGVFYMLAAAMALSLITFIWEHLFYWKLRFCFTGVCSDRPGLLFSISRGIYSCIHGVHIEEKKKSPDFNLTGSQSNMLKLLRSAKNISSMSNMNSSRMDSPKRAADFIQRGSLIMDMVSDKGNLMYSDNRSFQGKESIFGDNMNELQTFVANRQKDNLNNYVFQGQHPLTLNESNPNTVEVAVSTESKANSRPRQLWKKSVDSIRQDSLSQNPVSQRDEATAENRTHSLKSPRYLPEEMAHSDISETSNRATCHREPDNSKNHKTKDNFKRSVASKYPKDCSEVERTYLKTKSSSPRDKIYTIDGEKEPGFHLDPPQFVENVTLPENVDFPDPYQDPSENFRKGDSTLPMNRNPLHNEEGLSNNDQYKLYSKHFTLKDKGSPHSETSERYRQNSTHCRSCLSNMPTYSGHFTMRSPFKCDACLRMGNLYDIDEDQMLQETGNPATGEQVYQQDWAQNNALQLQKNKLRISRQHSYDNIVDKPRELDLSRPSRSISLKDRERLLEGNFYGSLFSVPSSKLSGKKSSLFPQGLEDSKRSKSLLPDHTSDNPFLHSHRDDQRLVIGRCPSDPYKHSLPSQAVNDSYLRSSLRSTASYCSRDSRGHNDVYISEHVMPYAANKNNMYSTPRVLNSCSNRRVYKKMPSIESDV

In the case of `CC(C)(C)OC(=O)N1CCCC12CCNC2=O` (single isomer, unassigned) [RM-1, tert-butyl 6-oxo-1,7-diazaspiro[4.4]nonane-1-carboxylate], in the series with rats (dose .001-1 mg/kg), the “Max Effect (mean number of 50 kHz USVs per 15 seconds)” value was “*** (***:10.1-20)”. At NMDAR2A, the “A: % maximal [3H]MK-801 binding relative to 1 mM glycine” value is listed as “+ (<100%=+)” and the 50% effective concentration (EC50) is under 1 nM. Besides, at NMDAR2B, the “A: % maximal [3H]MK-801 binding relative to 1 mM glycine” value is reported as “++ (>100%=++)” and the EC50 is under 1 nM. Besides, at NMDAR2C, the concentration giving a half-maximal response (EC50) is under 1 nM. Also, at NMDAR2D [1], the EC50 is under 1 nM and the Emax is under 100%. Moreover, in the series “IV pharmacokinetics” (setting [4]), the AUC(0-t) is 1330 ng·h/mL, the clearance was determined as 24.9 mL/min/kg, the half-life is 29.4 min and the Vd turned out to be 0.91 L/kg. In “IV pharmacokinetics” (setting [5]), the C0 worked out at 2010 ng/mL. Also, in series [2], the “CSF Cmax” value was determined as 1415 ng/mL and the “Brain Cmax” value was found to be 2763 ng/mL. In series [2] (setting [6]), this compound had an AUC(0-t) of 5010 ng·h/mL and a bioavailability of 75%. Further, the Cmax in series [2] (setting [7]) came to 4310 ng/mL. In series [2] (setting [8]), the Tmax turned out to be 15 min.
With `CC(C)(C)OC(=O)N1CCCC2(CCNC2=O)C1` (single isomer, unassigned) [RA-1, tert-butyl 1-oxo-2,7-diazaspiro[4.5]decane-7-carboxylate], the “Max Effect (mean number of 50 kHz USVs per 15 seconds)” value in the series on rats (dose 0.1 mg/kg) is given as “*** (***:10.1-20)”. At NMDAR2A, the “A: % maximal [3H]MK-801 binding relative to 1 mM glycine” value was “+ (<100%=+)” and the EC50 was at least 1 nM. Moreover, on NMDAR2B, the “A: % maximal [3H]MK-801 binding relative to 1 mM glycine” value is reported as “+ (<100%=+)” and the EC50 is under 1 nM. For the same compound, the concentration for a half-maximal effect (EC50) at NMDAR2C is under 1 nM. For the same compound, the “A: % maximal [3H]MK-801 binding relative to 1 mM glycine” value at NMDAR2D [3] (second part of table (r25-r35), c3, taken as NMDAR2D) is “− (−=0)”. The “B: log EC50” value at NMDAR2D [3] (second part of table, c4, taken as NMDAR2D) is reported as “−”. Besides, in the series “IV pharmacokinetics” (intravenous 2 mg/kg), the AUClast worked out at 234.08 ng·h/mL, the T1/2 worked out at 11.4 min, the Vss turned out to be 1.69 L/kg and the C0 amounted to 1247.08 ng/mL. In addition, in series [2], the “% F” value came out at 28%, the AUClast is 324.2 ng·h/mL, the “CSF Cmax” value was determined as 102.5 ng/mL and the “Brain Cmax” value amounted to 203.6 ng/mL. Further, in series [2], the Tmax amounted to 15 min. The Cmax in series [2] (plasma) was found to be 592 ng/mL.
Turning to `CC(C)C(=O)N1CCCC12CCNC2=O` (centres unmarked) [RZ-405], at NMDAR2A, the “A: % maximal [3H]MK-801 binding relative to 1 mM glycine” value is on record as “+ (<100%=+)” and the EC50 is under 1 nM. Further, on NMDAR2B (read-out: A: % maximal [3H]MK-801 binding relative to 1 mM glycine), the Emax was over 100%. The EC50 at NMDAR2B is at least 1 nM. Besides, the EC50 at NMDAR2C is under 1 nM. On NMDAR2D [1], the concentration giving a half-maximal response (EC50) was under 1 nM and the Emax was under 100%. Moreover, in “IV pharmacokinetics” (setting [4]), the area under the curve AUC(0-t) came out at 7010 ng·h/mL, the clearance was found to be 4.74 mL/min/kg, the half-life is 243 min and the Vd was determined as 0.69 L/kg. In addition, the C0 in “IV pharmacokinetics” (setting [5]) worked out at 3040 ng/mL. Besides, in series [2], the “CSF Cmax” value is 3157 ng/mL and the “Brain Cmax” value is 2209 ng/mL. Further, in series [2] (setting [6]), the exposure AUC(0-t) came out at 29500 ng·h/mL and the bioavailability was found to be 84%. Further, in [2] (setting [7]), the maximum concentration (Cmax) amounted to 10800 ng/mL. The time to peak (Tmax) in [2] (setting [8]) came out at 30 min. Also, in the series on Sprague Dawley rats (1 h post-dose, floating time in 5 min test), the Significance vs. vehicle result was “Yes (statistically significant (p<=0.05) from vehicle at dose level shown)”. For the same compound, the “% reduction in float time” value in the series on Sprague Dawley rats (1 h post-dose) is on record as 78.9%. Also, in the series on Sprague Dawley rats (24 h post-dose), the Significance vs. vehicle entry was “Yes (statistically significant (p<=0.05) from vehicle at dose level shown)” and the “% reduction in float time” value was 42.7%.
